Reference: patent publication US11078188B2, “Dihydroquinoxaline bromodomain recognition protein inhibitor, preparation method and use thereof” (SHANGHAI INSTITUTE OF MATERIA MEDICA, CHINESE ACADEMY OF …, priority 2017, dated 2021)

Columns and labels:
BRD4 (I) = BRD4 (I) (Homo sapiens (Human), UniProt O60885); experiment: Fluorescence anisotropy (FA) binding test on BRD4 (I); conditions: BRD4 (I) 10 nM, fluorescent (+)-JQ1 substrate 5 nM, read-out: BRD4 (1) IC50
Protocol: The binding activity of the compound to BRD4 (I) was tested using a fluorescence anisotropy (FA) method. The principle of FA test is to calculate and analyze the fluorescence polarization values in the horizontal and vertical directions by detecting the change of molecular weight before and after the interaction of fluorescein-labeled small molecules with other molecules. If the equilibrium of the binding between the fluorescently labeled small molecule and macromolecule is established, it will move slowly when excited, and the measured fluorescence polarization value will increase. If the binding between the fluorescently labeled small molecule and the macromolecule is replaced by another ligand, its rotation or flipping speed in the free state will be faster, and the emitted light will be depolarized relative to the plane of the excitation light, and the measured polarized light value will decrease to calculate the fluorescence anisotropy of the sample.
Expression and purification of the BRD4(I) recognition domain: colonies of newly transformed plasmid DNA from E. coli BL21(DE3)-condon plus-RIL cells were cultivated in 50 mL of Terrific Broth medium containing 50 μg/mL kanamycin and 34 μg/mL chloramphenicol at 37° C. overnight (starting culture). The starting culture was then diluted 100-fold in 1 L of fresh TB medium and the cells were grown at 37° C. to an optical density of about 0.8 at OD600 and then the temperature was lowered to 16° C. When the system was equilibrated at 16° C., the optical density at OD600 was approximately 1.2, and protein expression was induced with 0.2 mmol of isopropyl-β-D-thiogalactopyranoside (IPTG) overnight at 16° C. Bacteria were harvested by centrifugation (4000×g, 20 minutes, 4° C.) and stored as a pellet at −80° C. The cells expressing His 6-tagged protein was resuspend in lysis buffer [50 mmol 4-hydroxyethylpiperazineethanesulfonic acid (HEPES), 25° C., pH 7.5, 500 mmol NaCl, 10 mmol imidazole, 5% glycerol and freshly added 0.5 mmol of tris(2-carboxyethyl)phosphine hydrochloride (TCEP) and 1 mmol of phenylmethanesulfonyl fluoride (PMSF)] and lysed at 4° C. using JN 3000PLUS high pressure homogenizer (JNBIO-Guangzhou, China). The lysate was clarified by centrifugation (12,000×g for 1 hour at 4° C.) and applied to a nickel-nitriloacetate agarose column. The column was washed once with 50 mL of wash buffer containing 30 mmol of imidazole. The protein was eluted using imidazole in an elution buffer in a stepwise elution (100-250 mmol imidazole in 50 mmol HEPES, 25° C., pH 7.5, 500 mmol NaCl, 5% glycerol). All fractions were collected and monitored by SDS-polyacrylamide gel electrophoresis (Bio-Rad Criterion TM Precast Gels, 4-12% Bis-Tris, 1.0 mm, from Bio-Rad, CA). After 1 mmol of dithiothreitol (DTT) was added, the eluted proteins were treated with tobacco […] virus (TEV) protease overnight at 4° C. to remove the His6 tag. The protein was concentrated and further purified by size exclusion chromatography on a Superdex 75 16/60 HiLoad gel filtration column. The samples were monitored by SDS-polyacrylamide gel electrophoresis and concentrated to 8-10 mg/mL with gel filtration buffer, 10 mmol Hepes pH 7.5, 500 mM NaCl, 1 mmol DTT, and used for protein binding assays and crystallization.
The fluorogenic substrate was (+)-JQ1 linked to a fluorescent molecule and the working concentration was 5 nM. BRD4 (I) protein had 10 nM of working concentration and the total reaction system was 40 μL. The buffer was 50 mM 4-hydroxyethylpiperazineethanesulfonic acid (HEPES) pH 7.4, 150 mM NaCl, 0.5 mM 3[(3-cholamidopropyl)dimethylammonio]propanesulfonate (CHAPS). […] The final concentration of DMSO was chosen to be 0.2%, taking into account the solubility of the compound and the effect of DMSO on the assay. All measurements were made under these conditions. […]

[1] = Metabolic stability in mouse liver microsomes; type: in vitro ADME
[2] = system: MM.1S nude mice xenografts; experiment: Growth of MM.1S nude mice xenografts in vivo; parameters: species or system Balb/C nude mice; conditions: for TV (mm^3, mean) d0: d0 (at start of administration)
Protocol: Balb/C nude mice (6 weeks, female, Beijing Huafukang Biotechnology Co., Ltd.) were purchased, and the animals were conditioned for about one week before the test. MM.1S cells were cultured in vitro, and the cells in logarithmic growth phase were resuspended in serum-free RPMI1640 medium to adjust the cell concentration. The cell suspension was subcutaneously injected into forefoot armpit of the Balb/C nude mice with a syringe, and each animal was injected with 150 μL (8.0×10^6/mouse). When the average tumor volume grew to about ˜150 mm^3, the animals were divided into 4 groups containing solvent control group, 50 mg/kg OTX-015 group, and 20 and 50 mg/kg compound 6 groups by the randomized block method and each group contained six animals. […] During the administration period, the tumor diameter was measured twice a week, the body weight of the animals was weighed, the living state of the animals was observed, and abnormal conditions were recorded.
The formula for calculating tumor volume (TV): TV=½×a×b^2, where a and b represent length and width, respectively.
The relative tumor volume (RTV) was calculated based on the measured results, and the calculation formula was: RTV=Vt/V0. Wherein V0 was the measured tumor volume at the time of administration by cage (ie, d0), and Vt was the tumor volume at each measurement.
The relative tumor proliferation rate T/C (%) was calculated based on the measured results, and the calculation formula was as follows: T/C (%)=(TRTV/CRTV)×100%, TRTV: treatment group RTV; CRTV: negative control group RTV.

CYP3A4 = CYP3A4 (Homo sapiens (Human), UniProt P08684); experiment: Direct inhibition test (DI test), CYP 3A4; type: in vitro ADME; conditions: human liver microsomes 0.2 mg/ml, first of two values a/b (two 3A4 probes midazolam, testosterone; assignment not given), read-out: Direct inhibition rate (%) 3A4, first value
CYP3A4, sequence (P08684 whole entry): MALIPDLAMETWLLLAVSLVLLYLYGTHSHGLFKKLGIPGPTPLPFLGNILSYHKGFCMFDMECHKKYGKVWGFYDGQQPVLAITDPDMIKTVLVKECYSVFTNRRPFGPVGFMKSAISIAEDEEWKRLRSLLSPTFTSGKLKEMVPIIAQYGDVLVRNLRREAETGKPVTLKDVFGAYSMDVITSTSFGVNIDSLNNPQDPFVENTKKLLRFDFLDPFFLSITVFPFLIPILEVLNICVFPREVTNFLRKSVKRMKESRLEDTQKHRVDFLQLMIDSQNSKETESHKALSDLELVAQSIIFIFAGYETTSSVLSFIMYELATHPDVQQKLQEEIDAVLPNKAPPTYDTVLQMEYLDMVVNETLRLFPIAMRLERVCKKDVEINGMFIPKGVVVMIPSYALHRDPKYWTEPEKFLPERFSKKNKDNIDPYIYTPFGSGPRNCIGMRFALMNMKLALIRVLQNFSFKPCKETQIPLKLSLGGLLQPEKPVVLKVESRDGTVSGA
Protocol: (§1) The system which was 100 μl of human liver microsomes (final concentration: 0.2 mg/ml) was used for direct inhibition incubation. The system contained NADPH (final concentration: 1 mM), 10 μl compound, positive inhibitor cocktail (ketoconazole, 10 μl, quinidine 10 μl, sulfaphenazole 100 μl, naphthoflavone 10 μl, tranylcypromine 1000 μl), negative control 10 μl DMSO and mixed probe substrate (midazolam 10 μl, testosterone 100 μl, dextromethorphan 10 μl, diclofenac 20 μl, phenacetin 100 μl, mephenytoin 100 μl). The reaction was stopped after the system was incubated for 20 min. The relative activity of the enzyme was calculated by measuring the relative amount of production of the metabolite.

1A2 = 1A2 (Homo sapiens (Human), UniProt P05177); experiment: Direct inhibition test (DI test), CYP 1A2; type: in vitro ADME; conditions: human liver microsomes 0.2 mg/ml, 20 min
1A2, sequence (P05177 whole entry): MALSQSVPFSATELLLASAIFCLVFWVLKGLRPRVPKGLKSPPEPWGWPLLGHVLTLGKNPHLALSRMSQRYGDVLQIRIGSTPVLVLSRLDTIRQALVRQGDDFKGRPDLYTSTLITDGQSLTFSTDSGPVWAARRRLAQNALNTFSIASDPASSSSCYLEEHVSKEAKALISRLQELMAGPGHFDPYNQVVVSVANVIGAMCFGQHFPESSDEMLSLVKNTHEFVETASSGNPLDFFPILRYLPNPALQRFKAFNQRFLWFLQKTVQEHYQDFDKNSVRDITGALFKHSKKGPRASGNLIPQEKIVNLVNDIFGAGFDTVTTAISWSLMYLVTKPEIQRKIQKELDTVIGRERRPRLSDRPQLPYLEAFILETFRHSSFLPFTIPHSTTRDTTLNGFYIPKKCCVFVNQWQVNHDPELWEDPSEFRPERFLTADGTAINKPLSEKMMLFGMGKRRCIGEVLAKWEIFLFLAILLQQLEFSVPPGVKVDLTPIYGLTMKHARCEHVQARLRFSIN
Protocol: as §1

SMILES | IC50 (BRD4 (I)) [nM] | MLM t1/2 [1] [h] | mLM Clint [1] [µL/min/mg] | RTV (mean SD) ([2]; 20 mg/kg qd/14 po) | T/C (%) ([2]; 20 mg/kg qd/14 po) | TV (mm^3, mean) d0 ([2]; 20 mg/kg qd/14 po) [mm^3] | TV (mm^3, mean) d14 ([2]; 20 mg/kg qd/14 po) [mm^3] | RTV (mean SD) ([2]; 50 mg/kg qd/14 po) | T/C (%) ([2]; 50 mg/kg qd/14 po) | TV (mm^3, mean) d0 ([2]; 50 mg/kg qd/14 po) [mm^3] | TV (mm^3, mean) d14 ([2]; 50 mg/kg qd/14 po) [mm^3] | inhibitory effect on the growth of MM.1S nude mice xenografts (in words) ([2]; oral administration of 50 mg/kg per day) | half-life at 1 μM ([1]; read-out: half-lives in mouse liver microsomes) [h] | microsomal CLint at 1 μM ([1]; read-out: mLM Clint) [µL/min/mg] | inhibition at 20 min (CYP3A4) [%] | Direct inhibition rate (%) 1A2 (1A2)
Cc1ccc(-n2nc(C(=O)N3CCN(C)CC3)nc2-c2ccc3c(c2)N(C2CCCC2)[C@H](C)C(=O)N3C)cc1 [Example 6] | 6.5 | 0.683 | 34 | 584.14 | 48.32 | 184.28 | 1024.45 | 417.16 | 34.51 | 185.34 | 660.39 | significant inhibitory effect | – | – | – | –
Cc1ccc(-n2nc(C(=O)N3C[C@@H](C)N[C@@H](C)C3)nc2-c2ccc3c(c2)N(C2CCCC2)[C@H](C)C(=O)N3C)cc1 [Example 12] | 4.9 | – | – | – | – | – | – | – | – | – | – | – | 3.22 | 7 | 23 | no
